Drawing on ChEMBL document CHEMBL2007661, “Compounds: GSK PKIS; Assays: UNC Frye lab” (2012), this text covers inhibition for three compounds.

SMILES strings stand for the structures. Values joined by “and” are separate entries in the source; they are usually repeats but may differ in a detail not shown here. Equal entries are not always repeated.

Test [1] addresses T1, Inhibitor of nuclear factor kappa-B kinase subunit beta (Homo sapiens) (UniProt O14920).
T1 sequence (whole entry): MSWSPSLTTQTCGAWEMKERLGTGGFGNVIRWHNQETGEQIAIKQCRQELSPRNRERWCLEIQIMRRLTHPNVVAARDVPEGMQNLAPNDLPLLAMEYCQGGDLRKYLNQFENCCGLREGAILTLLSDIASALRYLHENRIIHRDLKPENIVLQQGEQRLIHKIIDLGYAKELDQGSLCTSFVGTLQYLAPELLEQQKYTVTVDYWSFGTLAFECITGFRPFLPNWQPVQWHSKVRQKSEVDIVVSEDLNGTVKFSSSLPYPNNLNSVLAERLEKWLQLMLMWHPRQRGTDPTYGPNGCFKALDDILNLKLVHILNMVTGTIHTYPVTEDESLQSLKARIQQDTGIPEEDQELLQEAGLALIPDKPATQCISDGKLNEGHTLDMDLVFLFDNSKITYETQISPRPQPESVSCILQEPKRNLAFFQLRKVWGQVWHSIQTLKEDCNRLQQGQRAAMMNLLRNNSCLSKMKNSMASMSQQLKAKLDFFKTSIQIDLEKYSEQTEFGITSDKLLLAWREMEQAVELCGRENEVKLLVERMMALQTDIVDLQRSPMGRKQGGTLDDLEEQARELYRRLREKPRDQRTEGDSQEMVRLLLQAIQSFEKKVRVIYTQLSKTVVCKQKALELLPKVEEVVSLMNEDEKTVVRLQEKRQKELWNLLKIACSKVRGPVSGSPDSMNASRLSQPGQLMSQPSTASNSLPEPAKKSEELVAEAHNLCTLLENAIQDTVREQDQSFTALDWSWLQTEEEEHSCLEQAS
The conditions noted are these: at 1 µM.

For test [2], the target named is T2, Serine/threonine-protein kinase TBK1 (Homo sapiens) (UniProt Q9UHD2).
T2 sequence (whole entry): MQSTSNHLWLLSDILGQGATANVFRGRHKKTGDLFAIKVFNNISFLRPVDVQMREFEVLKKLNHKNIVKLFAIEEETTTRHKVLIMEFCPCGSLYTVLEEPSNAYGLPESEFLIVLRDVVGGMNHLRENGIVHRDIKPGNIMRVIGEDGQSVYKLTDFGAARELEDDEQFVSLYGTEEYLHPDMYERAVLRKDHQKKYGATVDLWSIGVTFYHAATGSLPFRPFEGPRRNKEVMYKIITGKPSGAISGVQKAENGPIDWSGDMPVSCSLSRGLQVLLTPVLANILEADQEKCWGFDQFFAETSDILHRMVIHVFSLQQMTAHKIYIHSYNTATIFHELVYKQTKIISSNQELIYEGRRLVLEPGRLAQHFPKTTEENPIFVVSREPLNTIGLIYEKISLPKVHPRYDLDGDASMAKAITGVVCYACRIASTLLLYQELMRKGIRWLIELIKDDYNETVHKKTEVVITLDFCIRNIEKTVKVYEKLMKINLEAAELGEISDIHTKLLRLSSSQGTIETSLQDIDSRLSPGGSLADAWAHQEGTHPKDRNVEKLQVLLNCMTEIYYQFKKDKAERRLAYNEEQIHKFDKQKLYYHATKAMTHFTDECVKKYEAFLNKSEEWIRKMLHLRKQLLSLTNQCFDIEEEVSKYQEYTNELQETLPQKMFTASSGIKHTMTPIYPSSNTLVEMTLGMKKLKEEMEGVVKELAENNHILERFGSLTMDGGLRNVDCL
The settings on record: at 1 µM.

Take `CC1=C(C(=O)Nc2ccc3[nH]ncc3c2)C(c2ccc(F)cc2)N=C(c2ccc(C(F)(F)F)nc2)N1` (stereo unspecified): the inhibition is -2% and -3% in test [1]; 1% and -1% in test [2].
As for `COc1cccc(-n2ncc3c(N/N=C/c4ccc(S(C)(=O)=O)cc4)ncnc32)c1`, the inhibition in test [1] is -1%; in test [2], 20% and 30%.
In the case of `COc1cccc(-n2ncc3c(N/N=C/c4ccc(C)cc4)ncnc32)c1`, the inhibition was 0% and -2% in test [1]; 1% and 2% in test [2].
